In patent US20240252693A1, “FOLATE RECEPTOR-TARGETED RADIOTHERAPEUTIC AGENTS AND THEIR USE” (Novartis AG, priority 2021, published 2024):

Experiments:
[1] = tested on: FR-positive IGROV-1 tumor; test: In vivo biodistribution in Athymic Nude-Foxn1nu mice bearing IGROV-1 tumors; settings: 177Lu chelate, 600 nmol/kg, 24 h post injection, mean ± SD
Method: Six week old female Athymic Nude-Foxn1nu mice (Envigo) were maintained on a standard 12-h light-dark cycle and fed ad libitum with folate deficient purified rodent dies (SSniff #E15321-147) for the duration of the experiment. FR-positive IGROV-1 tumor cells were inoculated in the subcutis dorsal medial area of mice. The biodistribution studies were […]. Mice were divided into groups of four, and freshly prepared test articles were injected through the lateral tail vein in a volume of 100 μL/10 g of PBS. Four h to 24 h post radioactive agent dose administration, mice were euthanized and organs (blood, bone, bowel (large and small), brain, heart, kidneys, liver, lungs, salivary glands, skeletal muscle, skin, spleen, stomach and tumor) were collected, weight and placed inside counting vials. Each tissue sample was counted for the activities of radioelement using a gamma-counter. Samples of the injective were used as decay correction standards. Final bar graph is expressed as % injected dose per gram of tissue FIG. 9.

[2] = tested on: FR-positive M109 tumor; test: In vivo biodistribution in mice bearing M109 tumors; settings: 177Lu chelate
Excerpt: Four- to eight-week-old female nu/nu mice or NSG mice (Harlan Sprague-Dawley, Inc.) were maintained on a standard 12-h light-dark cycle and fed ad libitum with Folate deficient purified rodent diet (TestDiet #AIN-93G) for the duration of the experiment. FR-positive M109 or FR-negative HT29 tumor cells were inoculated in the subcutis dorsal medial area of mice. The biodistribution studies were typically performed when tumors were approximately 400-800 mm^3 in volume. Mice were divided into groups of three, and freshly prepared test articles and competitors were injected through the lateral tail vein in a volume of 100 μL/10 g of PBS. Four h to six days post radioactive-agent dose administration, mice were euthanized and organs (blood, heart, lungs, liver, spleen, and kidneys, intestine, stomach, muscle, brain and tumor) were collected, weighed and placed inside counting vials. Each tissue sample was counted for the activities of radioelement using a gamma-counter. Samples of the injectate were used as decay correction standards. Final bar graphs are expressed as % injected dose per gram of tissue or tumor to kidney ratio, or % tumor to (kidneys+liver+spleen) ratio.

[3] = molecular target: T1, folate receptor (FR) on KB cells (Homo sapiens, UniProt P15328); test: Relative affinity assay: displacement of [3H]folic acid from FR-positive KB cells; format: binding; settings: inverse molar ratio to displace 50% of 100 nmol/L [3H]FA, 1 h 37 °C, folic acid set to 1
T1 construct: endogenous in cells; host or cells: KB cells
Method: FR-positive KB cells were seeded in 24-well Falcon plates and allowed to form adherent monolayers (>90% confluent) overnight in FDRPMI/10% FCS media. Spent incubation medium was replaced with FFRPMI supplemented with 10% HIFCS and containing 100 nmol/L of [^3H]FA in the absence and presence of increasing concentrations of unlabeled folic acid (FA), Compound 34, Compound 37, or non-targeted control (Table 14). Cells were incubated for 1 h at 37° C. and then rinsed three times with 0.5 mL PBS (phosphate-buffered saline). Five hundred microliters of 1% SDS (sodium dodecyl sulfate) in PBS were added to each well; after 5 min, cell lysates were collected, transferred to individual vials containing 5 mL of scintillation cocktail, and then counted for radioactivity. Cells exposed to only the [^3H]FA in FFRPMI (no competitor) were designated as negative controls, whereas cells exposed to the [^3H]FA plus 1 mmol/L unlabeled FA served as positive controls. Disintegrations per minute (DPM) measured in the latter samples (representing nonspecific binding of label) were subtracted from the DPM values from all samples. Relative affinities were defined as the inverse molar ratio of compound required to displace 50% of [^3H]FA bound to FR on KB cells, and the relative affinity of FA for the FR was set to 1.

[4] = molecular target: T2, folate receptors on FR-positive KB cells (Homo sapiens, UniProt P15328); test: Binding affinity assay: direct binding of 177Lu-labelled compounds to FR-positive KB cells; settings: 177Lu-labelled compound, 1 h 37 °C
T2 construct: endogenous in cells; host or cells: KB cells
Method: FR-positive KB cells and FR-negative A549 cells were seeded in 24-well Falcon plates and allowed to form adherent monolayers (>90% confluent) overnight in FFRPMI/HIFCS. Spent incubation medium was replaced with FFRPMI supplemented with 10% HIFCS containing increasing concentrations (0.78 to 100 nmol/L) of [^177Lu]-Compound 34, [^177Lu]-Compound 37, or [^177Lu]-(non-targeted control) in the absence and presence of 10 μM FA. Cells were incubated for 1 h at 37° C. and then rinsed three times with 0.5 mL PBS. Five hundred microliters of 1% NaOH in PBS were added to each well; after 5 min, cell lysates were collected, transferred to individual tubes, and then counted for radioactivity on a gamma counter. Counts per minute (CPM) values were measured in all samples and plotted against concentration of [^177Lu]-Compound 34, [1^77Lu]-Compound 37, or [^177Lu]-(non-targeted control) using GraphPad Prism 8 program. Dissociation constants (Kd) was calculated using a GraphPad's nonlinear regression one site binding method.

[5] = Body weight as measure of gross toxicity in the MDA-MB-231 anti-tumor study; format: in vivo; settings: 300 nmol/3.7 GBq/kg, female nu nu mice bearing MDA-MB-231 tumors
Excerpt: Four- to eight-week-old female nu nu mice or NSG mice (Harlan Sprague-Dawley, Inc.) were maintained on a standard 12-h light-dark cycle and fed ad libitum with folate deficient purified rodent diet (TestDiet #AIN-93G). FR-positive (human breast adenocarcinoma) or IGROV (human ovarian adenocarcinoma) or KB (human cervical adenocarcinoma) tumor cells were inoculated subcutaneously at the right flank of each mouse. […] Growth of each s.c. tumor was followed by measuring the tumor two times per week. Tumors were measured in two perpendicular directions using Vernier calipers, and their volumes were calculated as 0.5×L×W^2, where L=measurement of longest axis in mm and W=measurement of axis perpendicular to L in mm. A stable disease (SD) was defined as volume reduction of <50% and increase of <50% in two weeks. A partial response (PR) was defined as volume regression >50% but with measurable tumor (>2 mm^3) remaining at all times. Complete response (CR) was defined as a disappearance of measurable tumor mass (<2 mm^3) at some point within the study. Cures were defined as CRs without tumor regrowth within the study time frame. As a general measure of gross toxicity, changes in body weights were determined on the same schedule as tumor volume measurements.

[6] = Stability of [177Lu]-Compound 34 solution, radiochemical purity by radio-HPLC; format: physicochemical
Method: Preparation of [^177Lu]-Compound 34: Compound 34 solution (250 μL, 2 mM) was added to a vial. Gentisic acid/acetate buffer pH 5.5 (800 μL) and ^177LuCl3 solution (170 μL, 184 mCi) were added to the vial. The vial was placed in a shielded heating block and heated at 95° C. for 15 min. After cooling to room temperature, 7 mL of DTPA/sodium ascorbate solution pH 7.4 was added to the labeling mixture. The final solution contains 184 mCi of ^177Lu, 0.6 mg of Compound 34, 8 mg of gentisic acid, 1.5 mg of DTPA, 350 mg of sodium ascorbate.
[^177Lu]-Compound 34 solution was stored at room temperature and in a refrigerator. The radiochemical purities were monitored using radio-HPLC. [^177Lu]-Compound 34 was stable up to 6 days.

[7] = tested on: MDA-MB-231 tumors; test: In vivo anti-tumor activity in mice bearing MDA-MB-231 tumors; settings: 300 nmol/3.7 GBq/kg, female nu nu mice, n=5
Method: Four- to eight-week-old female nu nu mice or NSG mice (Harlan Sprague-Dawley, Inc.) were maintained on a standard 12-h light-dark cycle and fed ad libitum with folate deficient purified rodent diet (TestDiet #AIN-93G). FR-positive (human breast adenocarcinoma) or IGROV (human ovarian adenocarcinoma) or KB (human cervical adenocarcinoma) tumor cells were inoculated subcutaneously at the right flank of each mouse. Mice were dosed with [^177Lu]-Compound 34, [^177Lu]-Compound 37, or [^225Ac]-Compound 5 through the lateral tail vein under sterile conditions in a volume of 100 μL/10 g of phosphate-buffered saline (PBS). Growth of each s.c. tumor was followed by measuring the tumor two times per week. Tumors were measured in two perpendicular directions using Vernier calipers, and their volumes were calculated as 0.5×L×W^2, where L=measurement of longest axis in mm and W=measurement of axis perpendicular to L in mm. A stable disease (SD) was defined as volume reduction of <50% and increase of <50% in two weeks. A partial response (PR) was defined as volume regression >50% but with measurable tumor (>2 mm^3) remaining at all times. Complete response (CR) was defined as a disappearance of measurable tumor mass (<2 mm^3) at some point within the study. Cures were defined as CRs without tumor regrowth within the study time frame. As a general measure of gross toxicity, changes in body weights were determined on the same schedule as tumor volume measurements.

[8] = tested on: KB tumor; test: In vivo biodistribution in mice bearing KB tumors; settings: 225Ac chelate, 30 nmol/kg

T2 sequence (P15328 25-234): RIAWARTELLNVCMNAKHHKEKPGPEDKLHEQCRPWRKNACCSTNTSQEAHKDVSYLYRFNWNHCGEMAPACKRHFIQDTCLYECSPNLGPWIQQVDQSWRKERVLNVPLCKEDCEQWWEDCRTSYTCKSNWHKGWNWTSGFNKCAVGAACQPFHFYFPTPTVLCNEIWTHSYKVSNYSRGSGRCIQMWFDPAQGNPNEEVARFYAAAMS
T1 sequence (P15328 25-234): as above

| Compound | T/Kid [1] | T/Liv [1] | T/spl [1] | T/Kid ([2]; 300 nmol/kg) | T/Liv ([2]; 300 nmol/kg) | T/spl ([2]; 300 nmol/kg) | T^2/kid ([2]; 300 nmol/kg) | Relative Binding Affinity [3] | Kd [4] [nM] | average weight of mice (tolerability) [5] | partial responses (PRs) [7] | also measured |
| --- | --- | --- | --- | --- | --- | --- | --- | --- | --- | --- | --- | --- |
| Nc1nc2ncc(CNc3ccc(C(=O)N[C@@H](CCCCNC(=O)COc4ccc(C[C@H](NC(=O)CNC(=O)CN5CCN(CC(=O)O)CCN(CC(=O)O)CCN(CC(=O)O)CC5)C(=O)O)cc4)C(=O)O)cc3)nc2c(=O)[nH]1 [Compound 37, 2,2′,2″-(10-(2-((2-(((S)-2-(4-(2-(((S)-5-(4-(((2-amino-4-oxo-3,4-dihydropteridin-6-yl)methyl)amino)benzamido)-5-carboxypentyl)amino)-2-oxoethoxy)phenyl)-1-carboxyethyl)amino)-2-oxoethyl)amino)-2-oxoethyl)-1,4,7,10-tetraazacyclododecane-1,4,7-triyl)triacetic acid] | 0.15 +/− 0.03 | 1.37 +/− 0.37 | 0.49 +/− 0.17 | 0.46 +/− 0.14 | 13.2 +/− 4.5 | 61.9 +/− 14.4 | 1.51 +/− 0.57 | 1.53 | – | – | – | – |
| Nc1nc2ncc(CNc3ccc(C(=O)N[C@@H](CCCCNC(=O)C[C@H](NC(=O)[C@H](Cc4ccc5ccccc5c4)NC(=O)CNC(=O)CN4CCN(CC(=O)O)CCN(CC(=O)O)CCN(CC(=O)O)CC4)C(=O)O)C(=O)O)cc3)nc2c(=O)[nH]1 [[^177Lu]-Compound 34, metal not drawn] | – | – | – | – | – | – | – | – | 7.21 | did not lose any significant weight | five | Radiochemical purity (%) ([6]; 0° C., 3 days): 97.19%; Radiochemical purity (%) ([6]; 0° C., 6 days): 96.58%; Radiochemical purity (%) ([6]; 0° C., initial): 97.14%; Radiochemical purity (%) ([6]; Room temperature (24° C.), 3 days): 96.77%; Radiochemical purity (%) ([6]; Room temperature (24° C.), 6 days): 95.89%; Radiochemical purity (%) ([6]; Room temperature (24° C.), initial): 97.14%; time over which the solution was stable ([6]; stored at room temperature and in a refrigerator, radio-HPLC): up to 6 days |
| Nc1nc2ncc(CNc3ccc(C(=O)N[C@@H](CCCCNC(=O)C[C@H](NC(=O)[C@H](Cc4ccc5ccccc5c4)NC(=O)CNC(=O)CN4CCN(CC(=O)O)CCN(CC(=O)O)CCN(CC(=O)O)CC4)C(=O)O)C(=O)O)cc3)nc2c(=O)[nH]1 [Compound 34, 2,2′,2″-(10-((3S,11S,14S)-1-(4-(((2-amino-4-oxo-3,4-dihydropteridin-6-yl)methyl)amino)phenyl)-3,11-dicarboxy-14-(naphthalen-2-ylmethyl)-1,9,13,16,19-pentaoxo-2,8,12,15,18-pentaazaicosan-20-yl)-1,4,7,10-tetraazacyclododecane-1,4,7-triyl)triacetic acid] | 0.29 +/− 0.05 | 1.53 +/− 0.57 | 0.49 +/− 0.07 | 0.55 +/− 0.1 | 25.3 +/− 6.6 | 98.3 +/− 25.1 | 1.7 +/− 0.9 | 2.21 | – | – | – | T/Kid ([2]; 600 nmol/kg): 0.80 +/− 0.18; T/Liv ([2]; 600 nmol/kg): 29.1 +/− 5.4; T/spl ([2]; 600 nmol/kg): 92.8 +/− 5.4; T^2/kid ([2]; 600 nmol/kg): 1.97 +/− 0.7 |
| O=C(O)CN1CCN(CC(=O)O)CCN([C@@H](CCC(=O)NC[C@H](NC(=O)c2ccc(NCc3ccc4ccccc4c3)cc2)C(=O)O)C(=O)O)CCN(CC(=O)O)CC1 [(non- targeted control), reference compound] | – | – | – | – | – | – | – | Non- binder | – | – | – | Direct Binding (Kd, nM) [4]: Non- binder |
| Nc1nc2ncc(CNc3ccc(C(=O)N[C@@H](CCCCNC(=O)COc4ccc(C[C@H](NC(=O)CNC(=O)CN5CCN(CC(=O)O)CCN(CC(=O)O)CCN(CC(=O)O)CC5)C(=O)O)cc4)C(=O)O)cc3)nc2c(=O)[nH]1 [[^177Lu]-Compound 37, metal not drawn] | – | – | – | – | – | – | – | – | 8.99 | did not lose any significant weight | four | complete response (CR) [7]: one |
| Nc1nc2ncc(CNc3ccc(C(=O)N[C@@H](CNC(=O)CN4CCN(CC(=O)O)CCN(CC(=O)O)CCN(CC(=O)O)CC4)C(=O)O)cc3)nc2c(=O)[nH]1 [Compound 3] | – | – | – | – | – | – | – | – | – | – | – | T/Kid ([2]; 100 nmol/kg): 0.30 +/− 0.04; T/Liv ([2]; 100 nmol/kg): 0.93 +/− 0.15; T/spl ([2]; 100 nmol/kg): 10.6 +/− 1.8; T^2/kid ([2]; 100 nmol/kg): 1.6 +/− 0.4; T/Kid [8]: 0.04 +/− 0.01; T/Liv [8]: 0.5 +/− 0.3; T/spl [8]: 6.8 +/− 2.9 |
